In PubChem BioAssay AID244 (DTP/NCI, 2004) one finds T/C data, which are given here for ten compounds.

For this experiment, the system named is CD2F1 mice, Lymphoma 8 ip, survival T/C. Description: NCI In Vivo Anticancer Drug Screen. Data for tumor model Lymphoma 8 (intraperitoneal) in CD2F1 (CDF1) mice. To be noted: endpoint: median survival time, higher = longer survival. The method, then:
The antitumor activity of compounds was measured in mice bearing transplantable tumors. Survival or tumor size were measured and the results are expressed as the measurement made in the treated group (T) divided by the measurement made in the vehicle treated control group (C). The tumor model used in this assay is Lymphoma 8 (intraperitoneal) in CD2F1 (CDF1) mice

[1] abbreviates: dose: 60.0 mg/kg/injection, schedule: Q04DX002 (ip), vehicle: saline.

SMILES strings stand for the structures. Several values for one entry are separate records, joined by “and”; a condition that tells them apart may be missing. Equal entries are not always repeated. Records with an inconclusive call do not appear.

On to `N=[N+]=CC(=O)CCC(NC(=O)C(CCC(=O)C=[N+]=N)NC(=O)CCC(N)C(=O)O)C(=O)O` (stereo not drawn), for which the T/C is, setting by setting: (dose: 0.31 mg/kg/injection, schedule: Q04DX002 (ip), vehicle: saline) 111 % of control; (dose: 0.63 mg/kg/injection, schedule: Q04DX002 (ip), vehicle: saline) 107 % of control; (dose: 1.25 mg/kg/injection, schedule: Q04DX002 (ip), vehicle: saline) 115 % of control; (dose: 2.5 mg/kg/injection, schedule: Q01DX006 (ip), vehicle: saline) 121 % of control; (dose: 10.0 mg/kg/injection, schedule: Q01DX006 (ip), vehicle: saline) 121 % of control; (dose: 10.0 mg/kg/injection, schedule: Q04DX002 (ip), vehicle: saline) 169 % of control. Besides, the T/C was 107 % of control (dose: 20.0 mg/kg/injection, schedule: Q01DX001 (ip), vehicle: saline); 153 % of control (dose: 20.0 mg/kg/injection, schedule: Q04DX002 (ip), vehicle: saline); 180 % of control (dose: 40.0 mg/kg/injection, schedule: Q04DX002 (ip), vehicle: saline); 169 % of control (dose: 40.0 mg/kg/injection, schedule: Q04DX003 (ip), vehicle: saline); 107 % of control (dose: 60.0 mg/kg/injection, schedule: Q01DX001 (ip), vehicle: saline); 180 % of control under setting [1]. For the same compound, the T/C (dose: 60.0 mg/kg/injection, schedule: Q04DX003 (ip), vehicle: saline) is 176 % of control; the T/C (dose: 80.0 mg/kg/injection, schedule: Q01DX006 (ip), vehicle: saline) is 171 % of control; the T/C (dose: 80.0 mg/kg/injection, schedule: Q04DX003 (ip), vehicle: saline) is 188 % of control.
Regarding `O=C1NC(O)CCN1C1OC(CO)C(O)C1O` (stereo not drawn), the T/C was 102 % of control and 109 % of control (dose: 10.0 mg/kg/injection, schedule: Q01DX015 (ip), vehicle: saline); 100 % of control and 101 % of control (dose: 10.0 mg/kg/injection, schedule: Q04DX008 (ip), vehicle: saline); 102 % of control and 109 % of control (dose: 10.0 mg/kg/injection, schedule: Q## X015 (ip), vehicle: saline); 102 % of control and 112 % of control (dose: 30.0 mg/kg/injection, schedule: Q01DX015 (ip), vehicle: saline); 101 % of control (2×) and 103 % of control (dose: 30.0 mg/kg/injection, schedule: Q04DX008 (ip), vehicle: saline); 102 % of control and 112 % of control (dose: 30.0 mg/kg/injection, schedule: Q## X015 (ip), vehicle: saline). In addition, the T/C is 102 % of control and 104 % of control (dose: 100.0 mg/kg/injection, schedule: Q01DX015 (ip), vehicle: saline); 101 % of control (2×) and 103 % of control (dose: 100.0 mg/kg/injection, schedule: Q04DX008 (ip), vehicle: saline); 102 % of control and 104 % of control (dose: 100.0 mg/kg/injection, schedule: Q## X015 (ip), vehicle: saline); 99 % of control and 101 % of control (dose: 300.0 mg/kg/injection, schedule: Q01DX015 (ip), vehicle: saline); 99 % of control and 102 % of control (dose: 300.0 mg/kg/injection, schedule: Q04DX008 (ip), vehicle: saline); 99 % of control and 101 % of control (dose: 300.0 mg/kg/injection, schedule: Q## X015 (ip), vehicle: saline). The T/C reads like this: (dose: 1000.0 mg/kg/injection, schedule: Q01DX015 (ip), vehicle: saline) 101 % of control; (dose: 1000.0 mg/kg/injection, schedule: Q04DX008 (ip), vehicle: saline) 99 % of control and 105 % of control; (dose: 1000.0 mg/kg/injection, schedule: Q## X015 (ip), vehicle: saline) 101 % of control.
Take `NC(CC(=O)CCl)C(=O)O` (stereo not drawn): the T/C (dose: 1.6 mg/kg/injection, schedule: Q01DX005 (ip), vehicle: saline) is 100 % of control; the T/C (dose: 3.13 mg/kg/injection, schedule: Q01DX005 (ip), vehicle: saline) was 92 % of control and 96 % of control and 108 % of control; the T/C (dose: 6.25 mg/kg/injection, schedule: Q01DX005 (ip), vehicle: saline) was 100 % of control and 103 % of control and 108 % of control; the T/C (dose: 12.5 mg/kg/injection, schedule: Q01DX001 (ip), vehicle: saline) is 100 % of control; the T/C (dose: 12.5 mg/kg/injection, schedule: Q01DX005 (ip), vehicle: saline) is 100 % of control and 103 % of control and 107 % of control; the T/C (dose: 25.0 mg/kg/injection, schedule: Q01DX001 (ip), vehicle: saline) was 100 % of control. In addition, the T/C is, setting by setting: (dose: 25.0 mg/kg/injection, schedule: Q01DX005 (ip), vehicle: saline) 111 % of control and 114 % of control and 120 % of control; (dose: 50.0 mg/kg/injection, schedule: Q01DX001 (ip), vehicle: saline) 108 % of control; (dose: 50.0 mg/kg/injection, schedule: Q01DX005 (ip), vehicle: saline) 37 % of control; (dose: 100.0 mg/kg/injection, schedule: Q01DX001 (ip), vehicle: saline) 91 % of control.
On to `COc1cc2c(c3c1c(=O)c1ccccc1n3C)C=CC(C)(C)O2`, for which the T/C runs as follows: (dose: 12.5 mg/kg/injection, schedule: Q01DX009 (ip), vehicle: Klucel (hydroxypropylcellulose) (HPC)) 100 % of control; (dose: 25.0 mg/kg/injection, schedule: Q01DX009 (ip), vehicle: Klucel (hydroxypropylcellulose) (HPC)) 100 % of control; (dose: 50.0 mg/kg/injection, schedule: Q01DX009 (ip), vehicle: Klucel (hydroxypropylcellulose) (HPC)) 107 % of control; (dose: 100.0 mg/kg/injection, schedule: Q01DX009 (ip), vehicle: Klucel (hydroxypropylcellulose) (HPC)) 96 % of control.
For `CC[C@]1(O)C[C@H]2CN(CCc3c([nH]c4ccccc34)[C@@](C(=O)OC)(c3cc4c(cc3OC)N(C=O)[C@H]3[C@@](O)(C(=O)OC)[C@H](OC(C)=O)[C@]5(CC)C=CCN6CC[C@]43[C@@H]65)C2)C1`, the T/C runs as follows: (dose: 0.03 mg/kg/injection, schedule: Q01DX005 (ip), vehicle: saline) 96 % of control and 104 % of control and 109 % of control; (dose: 0.06 mg/kg/injection, schedule: Q01DX005 (ip), vehicle: saline) 100 % of control and 103 % of control and 105 % of control; (dose: 0.12 mg/kg/injection, schedule: Q01DX005 (ip), vehicle: saline) 115 % of control and 118 % of control; (dose: 0.13 mg/kg/injection, schedule: Q01DX005 (ip), vehicle: saline) 116 % of control.
For the compound `S=c1nc[nH]c2nc[nH]c12`, the T/C was 96 % of control (dose: 60.0 mg/kg/injection, schedule: Q01DX002 (ip), vehicle: saline); 107 % of control under setting [1]; 93 % of control (dose: 90.0 mg/kg/injection, schedule: Q01DX002 (ip), vehicle: saline); 107 % of control (dose: 90.0 mg/kg/injection, schedule: Q04DX002 (ip), vehicle: saline); 103 % of control (dose: 135.0 mg/kg/injection, schedule: Q01DX002 (ip), vehicle: saline).
`COc1cccc2c1C(=O)c1c(O)c3c(c(O)c1C2=O)C[C@@](O)(C(C)=O)C[C@@H]3OC1CC(N)C(O)C(C)O1` (stereo partly drawn): the T/C runs as follows: (dose: 1.25 mg/kg/injection, schedule: Q01DX005 (ip), vehicle: saline) 96 % of control and 101 % of control; (dose: 2.5 mg/kg/injection, schedule: Q01DX005 (ip), vehicle: saline) 100 % of control and 105 % of control; (dose: 5.0 mg/kg/injection, schedule: Q01DX005 (ip), vehicle: saline) 123 % of control; (dose: 10.0 mg/kg/injection, schedule: Q01DX005 (ip), vehicle: saline) 82 % of control.
Turning to `NC(=O)CC(N)C(=O)O` (stereo not drawn), the T/C is 91 % of control (dose: 100.0 mg/kg/injection, schedule: Q01DX005 (ip), vehicle: water); 100 % of control (dose: 200.0 mg/kg/injection, schedule: Q01DX005 (ip), vehicle: water); 100 % of control (dose: 400.0 mg/kg/injection, schedule: Q01DX005 (ip), vehicle: water); 91 % of control (dose: 800.0 mg/kg/injection, schedule: Q01DX005 (ip), vehicle: water).
In the case of `Nc1ncn(C2OC(CO)C(O)C2O)c(=O)n1` (stereo not drawn), the T/C is 116 % of control (dose: 0.75 mg/kg/injection, schedule: Q01DX005 (ip), vehicle: saline) and 158 % of control (dose: 3.0 mg/kg/injection, schedule: Q01DX005 (ip), vehicle: saline).
With `NC(C(=O)O)C(F)(F)C(=O)O` (stereo not drawn), the T/C (dose: 3.12 mg/kg/injection, schedule: Q01DX009 (ip), vehicle: saline) is 93 % of control; the T/C (dose: 6.25 mg/kg/injection, schedule: Q01DX009 (ip), vehicle: saline) was 97 % of control; the T/C (dose: 12.5 mg/kg/injection, schedule: Q01DX009 (ip), vehicle: saline) was 87 % of control and 89 % of control; the T/C (dose: 25.0 mg/kg/injection, schedule: Q01DX009 (ip), vehicle: saline) is 100 % of control; the T/C (dose: 50.0 mg/kg/injection, schedule: Q01DX009 (ip), vehicle: saline) is 107 % of control.
